Results from ChEMBL document CHEMBL3751782, “Synthesis and biological evaluation of quinoxaline di-N-oxide derivatives with in vitro trypanocidal activity” (Bioorg Med Chem Lett, 2016).
pIC50: −log10 of the molar value.

What was measured:
Trypanosoma cruzi [1] = experiment: Trypanocidal activity against Trypanosoma cruzi Tulahuen 2 epimastigotes after 5 days; format: functional, organism-based; details: Tulahuen 2, 120 h
Trypanosoma cruzi [2] = experiment: Trypanocidal activity against Trypanosoma cruzi Tulahuen 2 epimastigotes at 25 uM after 5 days; format: functional; details: Tulahuen 2, 120 h
Vero = experiment: Cytotoxicity against African green monkey Vero cells after 48 hrs by MTT assay; format: cell-based; details: Chlorocebus sabaeus
[3] = Selectivity index, ratio of IC50 for African green monkey Vero cells to IC50 for Trypanosoma cruzi Tulahuen 2 epimastigotes; format: toxicity, cell-based; details: read-out: Ratio IC50

O=C(c1ccc(F)cc1)c1c(C(F)(F)F)[n+]([O-])c2cc(Cl)c(Cl)cc2[n+]1[O-]
pIC50 (Trypanosoma cruzi [1]): 5.89 | inhibition at 25 µM (Trypanosoma cruzi [2]): 89.3%

CC(=O)c1c(C(F)(F)F)[n+]([O-])c2cc(F)c(N3CCOCC3)cc2[n+]1[O-]
pIC50 (Trypanosoma cruzi [1]): 5.19 | inhibition at 25 µM (Trypanosoma cruzi [2]): 100%

CC(C)C(=O)c1c(C(F)(F)F)[n+]([O-])c2cc(N(C)C)c(N3CCOCC3)cc2[n+]1[O-]
pIC50 (Trypanosoma cruzi [1]): 4.97 | inhibition at 25 µM (Trypanosoma cruzi [2]): 86%

CCOC(=O)c1c(C(F)(F)F)nc2cc(Cl)c(N3CCOCC3)cc2[n+]1[O-]
pIC50 (Trypanosoma cruzi [1]): < 4.60 | inhibition at 25 µM (Trypanosoma cruzi [2]): 54.6%

CC(=O)c1c(C(F)(F)F)[n+]([O-])c2cc(F)c(N3CCC(N4CCOCC4)CC3)cc2[n+]1[O-]
pIC50 (Trypanosoma cruzi [1]): 5.28 | inhibition at 25 µM (Trypanosoma cruzi [2]): 93.4%

CC1CS(=O)(=O)CCN1/N=C/c1ccc([N+](=O)[O-])o1 (stereo not drawn) [NIFURTIMOX]
inhibition at 25 µM (Trypanosoma cruzi [2]): 100%

CC(=O)c1c(C(F)(F)F)[n+]([O-])c2cc(F)c(N3CCC(O)CC3)cc2[n+]1[O-]
pIC50 (Trypanosoma cruzi [1]): 5.20 | inhibition at 25 µM (Trypanosoma cruzi [2]): 84.9%

O=C(Cn1ccnc1[N+](=O)[O-])NCc1ccccc1 [BENZNIDAZOLE]
pIC50 (Trypanosoma cruzi [1]): 5.10 | inhibition at 25 µM (Trypanosoma cruzi [2]): 100%

O=C(c1ccc(F)cc1)c1c(C(F)(F)F)[n+]([O-])c2ccc(F)cc2[n+]1[O-]
pIC50 (Vero): 5.36 | pIC50 (Trypanosoma cruzi [1]): 5.96 | selectivity ratio [3]: 4 | inhibition at 25 µM (Trypanosoma cruzi [2]): 95.6%

CC(C)C(=O)c1c(C(F)(F)F)[n+]([O-])c2cc(N3CCOCC3)c(N3CCOCC3)cc2[n+]1[O-]
pIC50 (Trypanosoma cruzi [1]): 4.77 | inhibition at 25 µM (Trypanosoma cruzi [2]): 66.3%

CC(=O)c1c(C(F)(F)F)[n+]([O-])c2cc(N3CCCCC3)c(N3CCCCC3)cc2[n+]1[O-]
pIC50 (Vero): 5.35 | pIC50 (Trypanosoma cruzi [1]): 5.64 | selectivity ratio [3]: 1.7 | inhibition at 25 µM (Trypanosoma cruzi [2]): 100%

O=C(c1ccc(F)cc1)c1c(C(F)(F)F)[n+]([O-])c2cc(F)c(F)cc2[n+]1[O-]
pIC50 (Vero): 5.52 | pIC50 (Trypanosoma cruzi [1]): 6.22 | selectivity ratio [3]: 5 | inhibition at 25 µM (Trypanosoma cruzi [2]): 91.8%

O=C(c1ccco1)c1c(C(F)(F)F)nc2cc(Cl)c(N3CCOCC3)cc2[n+]1[O-]
pIC50 (Vero): 3.34 | pIC50 (Trypanosoma cruzi [1]): 4.92 | selectivity ratio [3]: 37.6 | inhibition at 25 µM (Trypanosoma cruzi [2]): 91.7%

CC(=O)c1c(C(F)(F)F)[n+]([O-])c2cc(N3CCC(O)CC3)c(N3CCC(O)CC3)cc2[n+]1[O-]
pIC50 (Trypanosoma cruzi [1]): < 4.60 | inhibition at 25 µM (Trypanosoma cruzi [2]): 15.7%

CC(=O)c1c(C(F)(F)F)[n+]([O-])c2cc(F)c(N3CCSCC3)cc2[n+]1[O-]
pIC50 (Trypanosoma cruzi [1]): 5.70 | inhibition at 25 µM (Trypanosoma cruzi [2]): 83.4%

O=C(c1ccc(F)cc1)c1c(C(F)(F)F)[n+]([O-])c2ccc(Cl)cc2[n+]1[O-]
pIC50 (Trypanosoma cruzi [1]): 6.00 | inhibition at 25 µM (Trypanosoma cruzi [2]): 86.1%

CC(=O)c1c(C(F)(F)F)[n+]([O-])c2cc(F)c(N3CCCCC3)cc2[n+]1[O-]
pIC50 (Vero): 4.82 | pIC50 (Trypanosoma cruzi [1]): 5.59 | selectivity ratio [3]: 5.8 | inhibition at 25 µM (Trypanosoma cruzi [2]): 96.9%
